Values after ≈ are worked out from the molar mass of the structure shown.
What was measured:
[1] = test system: EHV-1 Pneumabort vaccine strain; assay: Comparative in vivo activity against equine rhinopneumonitis virus in hamsters, medicated drinking water (Example 15); design: species or system Syrian hamsters; details: for Cumulative mortality (out of 15) on day: water conc. 0.075 mg/ml, average intake 6.6-6.8 mg/kg/day
Procedure: 50 male WO/CR Syrian hamsters were caged randomly in 10 groups of 5, with water and food (seed mix) ad lib. Hamsters were weighed on Days -3, 0, 4, and/or- at death/sacrifice. Water consumption was recorded over Days -3 to 0 to 4.
EHV-1 Pneumabort vaccine strain stored as a 10^-1 dilution, was further diluted 10^-1 in PBS for infection. On Day 0, hamsters in Groups 1-9 received 0.2 ml virus inoculum s/c in the left flank equivalent to about 2 x 10^5 PFU (plaque-forming units).
457U and 759U were dissolved in drinking water at 0.075 mg/ml. Assuming an average daily intake of […], this would result in a daily dose of around 10 mg/kg. Medicated water was provided from approximately 5 hours pre-infection for 96 hours, as below
The drug intake was calculated from the weight of the animals and the water consumption recorded over the period of the experiment.

herpes virus = assay: In vivo activity against herpetic encephalitis, intracerebrally infected mice (Example 17); details: for Mean reciprocal survival time: 100 mg/kg oral twice daily for 5 days, around 300 x LD50 intracerebrally, 14 days observation
Procedure: Swiss mice weighing 12-15 g were anaesthetised with ether and inoculated intracerebrally with 0.025 ml of a tissue culture preparation of type herpes virus. The mice were examined daily for sign of herpes encephalitis i.e. cerebral irritation leading to paralysis, coma and death. […] The viscera of the mice were examined for signs of infection with bacteria or other agents and if no abnormalities were found the brains were removed asceptically and ground to a smooth paste. The homogenate was resuspended in 4 ml of tissue culture maintenance medium to each brain, and mixed with glycerol in the ratio 2:1. Mouse brains weigh approximately 400 mg and the preparation thus represented a dilution of 10^-1.
The stocks of virus thus prepared were titrated in mice to determine the LD50 titre by inoculating mice intracerebrally with 10-fold dilutions of the stock preparation of virus and subsquently examined twice daily for signs of infection. The LD50 titre was calculated by the Karber method.
Groups of 5 mice were infected intracerebrally with stock virus diluted to give a dose of around 300 x LD50. The compound under test was administered twice daily as a suspension by the oral route at a dose of 100 mg/kg. The animals were examined twice daily and survival times were recorded to the nearst half-day. Dosing was carried out for 5 days and the total period of observation was 14 days. Survival times were converted to recipocals and the mean survival time was determined for each group L. Bauer, D. J., Brit. J. Exp. Path., 1960, 41, 130).

[2] = test system: Equine rhinopneumonitis virus (EHV-1); assay: In vivo activity against equine rhinopneumonitis virus in hamsters (Example 14), intraperitoneal and oral; design: species or system Syrian weanling hamsters; details: Equid alphaherpesvirus 1, ip, 120 h; intraperitoneally for 5 days commencing 5 hours pre-infection; read-out: dose rate generally necessary to prevent any virus-induced mortality
Solubility in water = assay type: physicochemical
From the text: As mentioned above, the compounds of formula (I) have the important advantage of having a greater solubility in water than acyclovir. Thus, the compounds of formula (I) wherein X is an oxygen atom and R is a hydroxy group or amino group have solubilities of 0.4 -.0.5% and 2 - 3% w/w respectively compared with a figure of 0.14% w/w for acyclovir.

Row | Compound | deaths from virus-induced hepatitis ([1]; in 15 treated hamsters, 14 deaths in 15 untreated controls) | prevention of EHV-1 induced mortality ([1]; orally in drinking water, approximately 7 mg/kg/day) | Cumulative mortality (out of 15) on day ([1]; day 2) | Cumulative mortality (out of 15) on day ([1]; day 3) | Cumulative mortality (out of 15) on day ([1]; day 4+) | Mean reciprocal survival time (herpes virus) | activity given orally to intracerebrally infected mice compared with acyclovir (herpes virus; same conditions) | minimal effective dose [2] | solubility (Solubility in water)
1 | Nc1nc2c(ncn2COC(CO)CO)c(=O)[nH]1 [Example 759U, 9-[(2-hydroxy-1-hydroxymethylethoxy)methyl]guanine] | no deaths | completely prevented | 0 | 0 | 0 | 0.15 | much greater than acyclovir |  | 
2 | Nc1nc2c(ncn2COCCO)c(=O)[nH]1 [acyclovir, 9-(2-hydroxyethoxymethyl) guanine, reference compound] |  |  |  |  |  | 0.26 |  | 100 mg/kg/day | 1.4 mg/mL (≈ 6.22 mM)

Reference: patent publication EP0072027A1, “Antiviral compounds” (THE WELLCOME FOUNDATION LIMITED, priority 1981, dated 1983)
